Measured values as given in ChEMBL document CHEMBL1201862, “PubChem BioAssay data set” (2004).
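Cells were grown in 96-well plates and exposed to each compound for 48 hours at five concentrations; endpoints were interpolated linearly between bracketing concentrations, or set to the highest concentration if not reached. GI50 = concentration required for 50% inhibition of growth.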 Calls of active or inactive are those of the source. No stated cut-off is given here; in the data, active = GI50 up to about 1.1 µM and inactive = higher.

Assays:
Experiment in all cases: inhibition of tumour cell growth, NCI panel, 48 h
786-0 = test system: 786-0
A549 = test system: A549
ACHN = test system: ACHN
CAKI-1 = test system: CAKI-1
CCRF-CEM = test system: CCRF-CEM
COLO 205 = test system: COLO 205
DLD-1 = test system: DLD-1
DMS-114 = test system: DMS-114
DMS-273 = test system: DMS-273
HCC 2998 = test system: HCC 2998
HCT-116 = test system: HCT-116
HCT-15 = test system: HCT-15
HL-60 = test system: HL-60
HOP-62 = test system: HOP-62
HOP-92 = test system: HOP-92
HT-29 = test system: HT-29
IGROV-1 = test system: IGROV-1
K562 = test system: K562
KM-20L2 = test system: KM-20L2
KM12 = test system: KM12
LXFL 529 = test system: LXFL 529
M14 = test system: M14
M19-MEL = test system: M19-MEL
MOLT-4 = test system: MOLT-4
Malme-3M = test system: Malme-3M
NCI-H226 = test system: NCI-H226
NCI-H23 = test system: NCI-H23
NCI-H460 = test system: NCI-H460
NCI-H522 = test system: NCI-H522
OVCAR-3 = test system: OVCAR-3
OVCAR-4 = test system: OVCAR-4
OVCAR-5 = test system: OVCAR-5
OVCAR-8 = test system: OVCAR-8
RPMI-8226 = test system: RPMI-8226
SF-268 = test system: SF-268
SF-295 = test system: SF-295
SF-539 = test system: SF-539
SK-MEL-28 = test system: SK-MEL-28
SK-MEL-2 = test system: SK-MEL-2
SK-MEL-5 = test system: SK-MEL-5
SNB-19 = test system: SNB-19
SNB-75 = test system: SNB-75
SR = test system: SR
SW-620 = test system: SW-620
TK-10 = test system: TK-10
U-251 = test system: U-251
UACC-257 = test system: UACC-257
UACC-62 = test system: UACC-62
UO-31 = test system: UO-31
A498 = test system: A498
BT-549 = test system: BT-549
DU-145 = test system: DU-145
EKVX = test system: EKVX
Hs-578T = test system: Hs-578T
LOX IMVI = test system: LOX IMVI
MCF7 = test system: MCF7
MDA-MB-231 = test system: MDA-MB-231
MDA-MB-435 = test system: MDA-MB-435
MDA-N = test system: MDA-N
NCI/ADR-RES = test system: NCI/ADR-RES
PC-3 = test system: PC-3
RXF 393 = test system: RXF 393
SK-OV-3 = test system: SK-OV-3
SN12C = test system: SN12C
T47D = test system: T47D

CC(=O)O[C@@]1(C)[C@@H](C)C(=O)O[C@@H]2CCN3CC=C(COC(=O)[C@]1(C)O)[C@H]23
GI50 (786-0): > 100 µM (inactive)
GI50 (A549): > 100 µM (inactive)
GI50 (ACHN): > 100 µM (inactive)
GI50 (CAKI-1): > 100 µM (inactive)
GI50 (CCRF-CEM): > 100 µM (inactive)
GI50 (COLO 205): > 100 µM (inactive)
GI50 (DLD-1): > 100 µM (inactive)
GI50 (DMS-114): > 100 µM (inactive)
GI50 (DMS-273): > 100 µM (inactive)
GI50 (HCC 2998): > 100 µM (inactive)
GI50 (HCT-116): > 100 µM (inactive)
GI50 (HCT-15): > 100 µM
GI50 (HL-60): > 100 µM (inactive)
GI50 (HOP-62): > 100 µM (inactive)
GI50 (HOP-92): > 100 µM (inactive)
GI50 (HT-29): > 100 µM (inactive)
GI50 (IGROV-1): > 100 µM (inactive)
GI50 (K562): > 100 µM (inactive)
GI50 (KM-20L2): > 100 µM (inactive)
GI50 (KM12): > 100 µM (inactive)
GI50 (LXFL 529): > 100 µM (inactive)
GI50 (M14): > 100 µM (inactive)
GI50 (M19-MEL): > 100 µM (inactive)
GI50 (MOLT-4): > 100 µM (inactive)
GI50 (Malme-3M): > 100 µM (inactive)
GI50 (NCI-H226): > 100 µM (inactive)
GI50 (NCI-H23): > 100 µM (inactive)
GI50 (NCI-H460): > 100 µM (inactive)
GI50 (NCI-H522): > 100 µM (inactive)
GI50 (OVCAR-3): > 100 µM (inactive)
GI50 (OVCAR-4): > 100 µM (inactive)
GI50 (OVCAR-5): > 100 µM (inactive)
GI50 (OVCAR-8): > 100 µM (inactive)
GI50 (RPMI-8226): > 100 µM (inactive)
GI50 (SF-268): > 100 µM (inactive)
GI50 (SF-295): > 10 µM (inactive)
GI50 (SF-539): > 100 µM (inactive)
GI50 (SK-MEL-28): > 100 µM (inactive)
GI50 (SK-MEL-2): > 100 µM (inactive)
GI50 (SK-MEL-5): > 100 µM (inactive)
GI50 (SNB-19): > 100 µM (inactive)
GI50 (SNB-75): 41 µM (inactive)
GI50 (SR): > 100 µM (inactive)
GI50 (SW-620): > 100 µM (inactive)
GI50 (TK-10): > 100 µM (inactive)
GI50 (U-251): > 100 µM (inactive)
GI50 (UACC-257): > 100 µM (inactive)
GI50 (UACC-62): > 100 µM (inactive)
GI50 (UO-31): > 100 µM (inactive)

O=C1Sc2cc3ccccc3cc2C(=O)Sc2cc3ccccc3cc21
GI50 (786-0): 15.4 µM (inactive)
GI50 (A498): > 100 µM (inactive)
GI50 (A549): 81.7 µM (inactive)
GI50 (ACHN): 28.9 µM (inactive)
GI50 (BT-549): 32.3 µM (inactive)
GI50 (CAKI-1): 32.2 µM (inactive)
GI50 (CCRF-CEM): 2.6 µM (inactive)
GI50 (COLO 205): > 100 µM (inactive)
GI50 (DU-145): 58.7 µM (inactive)
GI50 (EKVX): 76.2 µM (inactive)
GI50 (HCC 2998): 21.3 µM (inactive)
GI50 (HCT-116): 17.4 µM (inactive)
GI50 (HCT-15): 22.8 µM
GI50 (HL-60): 7.87 µM (inactive)
GI50 (HOP-62): 27.3 µM (inactive)
GI50 (HOP-92): 30.2 µM (inactive)
GI50 (HT-29): 28 µM (inactive)
GI50 (Hs-578T): 44.6 µM (inactive)
GI50 (IGROV-1): 32.3 µM (inactive)
GI50 (K562): 27 µM (inactive)
GI50 (KM12): 33 µM (inactive)
GI50 (LOX IMVI): 19 µM (inactive)
GI50 (M14): 27.8 µM (inactive)
GI50 (MCF7): 32.4 µM (inactive)
GI50 (MDA-MB-231): > 54.6 µM (inactive)
GI50 (MDA-MB-435): 30.8 µM (inactive)
GI50 (MDA-N): 29 µM (inactive)
GI50 (MOLT-4): 15.9 µM (inactive)
GI50 (Malme-3M): 34.9 µM (inactive)
GI50 (NCI-H226): > 100 µM (inactive)
GI50 (NCI-H23): 43.3 µM (inactive)
GI50 (NCI-H460): 41.6 µM (inactive)
GI50 (NCI-H522): 7.45 µM (inactive)
GI50 (NCI/ADR-RES): 29.1 µM (inactive)
GI50 (OVCAR-3): 21.1 µM (inactive)
GI50 (OVCAR-4): 23.2 µM (inactive)
GI50 (OVCAR-5): 36.1 µM (inactive)
GI50 (OVCAR-8): 24.5 µM (inactive)
GI50 (PC-3): 33.9 µM (inactive)
GI50 (RPMI-8226): 6.68 µM (inactive)
GI50 (RXF 393): 17.7 µM (inactive)
GI50 (SF-268): 26 µM (inactive)
GI50 (SF-295): > 87.3 µM (inactive)
GI50 (SF-539): 31.9 µM (inactive)
GI50 (SK-MEL-28): 28.6 µM (inactive)
GI50 (SK-MEL-2): 23 µM (inactive)
GI50 (SK-MEL-5): 50.8 µM (inactive)
GI50 (SK-OV-3): > 100 µM (inactive)
GI50 (SN12C): 23.2 µM (inactive)
GI50 (SNB-19): 47.1 µM (inactive)
GI50 (SNB-75): 38.8 µM (inactive)
GI50 (SR): 0.454 µM (active)
GI50 (SW-620): 30.3 µM (inactive)
GI50 (T47D): 23.3 µM (inactive)
GI50 (TK-10): 55.2 µM (inactive)
GI50 (U-251): 29.6 µM (inactive)
GI50 (UACC-257): 27.8 µM (inactive)
GI50 (UACC-62): 24.8 µM (inactive)
GI50 (UO-31): 19.5 µM (inactive)

Oc1ccc(/C=C\c2nnc(/C=C\c3ccc(O)c(O)c3)s2)cc1O
GI50 (786-0): 5.97 µM (inactive)
GI50 (A498): 9.16 µM (inactive)
GI50 (A549): 6.31 µM (inactive)
GI50 (ACHN): 3.69 µM (inactive)
GI50 (BT-549): 7.19 µM (inactive)
GI50 (CAKI-1): 5.14 µM (inactive)
GI50 (CCRF-CEM): 0.179 µM (active)
GI50 (COLO 205): 8.26 µM (inactive)
GI50 (DU-145): 7.05 µM (inactive)
GI50 (EKVX): 16.6 µM (inactive)
GI50 (HCC 2998): 8.32 µM (inactive)
GI50 (HCT-116): 3.26 µM (inactive)
GI50 (HCT-15): 3.85 µM
GI50 (HL-60): 0.853 µM (active)
GI50 (HOP-62): 8.85 µM (inactive)
GI50 (HOP-92): 5.07 µM (inactive)
GI50 (HT-29): 36.1 µM (inactive)
GI50 (Hs-578T): 3.73 µM (inactive)
GI50 (IGROV-1): 4.09 µM (inactive)
GI50 (K562): 1.21 µM (inactive)
GI50 (KM12): 5.45 µM (inactive)
GI50 (LOX IMVI): 5.46 µM (inactive)
GI50 (M14): 6.1 µM (inactive)
GI50 (MCF7): 3 µM (inactive)
GI50 (MDA-MB-231): 20 µM (inactive)
GI50 (MDA-MB-435): 3.78 µM (inactive)
GI50 (MDA-N): 4.68 µM (inactive)
GI50 (MOLT-4): 1.08 µM (active)
GI50 (Malme-3M): 2.03 µM (inactive)
GI50 (NCI-H226): 7.73 µM (inactive)
GI50 (NCI-H23): 3.34 µM (inactive)
GI50 (NCI-H460): 4.07 µM (inactive)
GI50 (NCI-H522): 0.875 µM (active)
GI50 (NCI/ADR-RES): 7.67 µM (inactive)
GI50 (OVCAR-3): 3.69 µM (inactive)
GI50 (OVCAR-4): 4.34 µM (inactive)
GI50 (OVCAR-5): > 48.6 µM (inactive)
GI50 (OVCAR-8): 4.56 µM (inactive)
GI50 (PC-3): 8.97 µM (inactive)
GI50 (RPMI-8226): 1.32 µM (inactive)
GI50 (RXF 393): 5.16 µM (inactive)
GI50 (SF-268): 2.89 µM (inactive)
GI50 (SF-295): 12.2 µM (inactive)
GI50 (SF-539): 3.36 µM (inactive)
GI50 (SK-MEL-28): 7.45 µM (inactive)
GI50 (SK-MEL-2): 11.7 µM (inactive)
GI50 (SK-MEL-5): 3.2 µM (inactive)
GI50 (SK-OV-3): 13.6 µM (inactive)
GI50 (SN12C): 5.98 µM (inactive)
GI50 (SNB-19): 6.07 µM (inactive)
GI50 (SNB-75): 5.26 µM (inactive)
GI50 (SR): 1.91 µM (inactive)
GI50 (SW-620): 1.49 µM (inactive)
GI50 (T47D): 2.35 µM (inactive)
GI50 (TK-10): 6.53 µM (inactive)
GI50 (U-251): 4.07 µM (inactive)
GI50 (UACC-257): 8.34 µM (inactive)
GI50 (UACC-62): 3.82 µM (inactive)
GI50 (UO-31): 3.38 µM (inactive)
